Drawing on ChEMBL document CHEMBL5729033, “Macrocyclic compounds that inhibit MCL-1 protein” (2022), this text covers IC50 for two molecules.

This assay has as its target Induced myeloid leukemia cell differentiation protein Mcl-1/Bcl-2-like protein 11 (Homo sapiens, UniProt Q07820). Kind of assay: Cell Free Mcl-1:Bim Affinity Assay (Mcl-1 HTRF): The inhibition of the Mcl-1/Bim interaction was measured using a time-resolved fluorescence resonance energy transfer (TR-FRET) assay. The recombinant human Mcl-1 (C-terminally 6×His tagged Mcl-1 containing residues 171-327) was generated at Amgen Inc (Thousand Oaks, Calif.). A biotinylated peptide derived from human Bim (residues 51-76) was purchased from CPC Scientific (San Jose, Calif.). The TR-FRET assay was conducted in a 384-well white OptiPlate™ (PerkinElmer, Waltham, Mass.) in a total volume of 40 μL. The reaction mixture contained 0.1 nM Mcl-1(171-327), 0.05 nM biotin-Bim(51-76), 0.05 nM LANCES Eu-W1024 Anti-6×His (PerkinElmer), 0.072 nM Streptavidin-Xlent (Cisbio, Bedford, Mass.), and serially diluted test compounds in the binding buffer of 20 mM Hepes, pH 7.5, 150 mM NaCl, 0.016 mM Brij®35, and 1 mM dithiothreitol. Test compounds were pre-incubated with Mcl-1(171-327) and biotin-Bim (51-76) for 60 min before addition of the detection mixture (LANCE® Eu-W1024 Anti-6×His and Streptavidin-Xlent). The reaction plates were further incubated overnight and then were read on an Envision® multimode reader (PerkinElmer). Fluorescence signals were measured at 620 nm (40-nm bandwidth) and 665 nm (7.5-nm bandwidth) with a 60 μs delay after excitation at 320 nm (75-nm bandwidth). […]. The format is protein assay. In general terms: In TR-FRET formats the signal depends on donor and acceptor labels being close together.

Each structure is given as a SMILES string.

Sequence of Induced myeloid leukemia cell differentiation protein Mcl-1/Bcl-2-like protein 11 (Q07820 whole entry, the tested form may be a part): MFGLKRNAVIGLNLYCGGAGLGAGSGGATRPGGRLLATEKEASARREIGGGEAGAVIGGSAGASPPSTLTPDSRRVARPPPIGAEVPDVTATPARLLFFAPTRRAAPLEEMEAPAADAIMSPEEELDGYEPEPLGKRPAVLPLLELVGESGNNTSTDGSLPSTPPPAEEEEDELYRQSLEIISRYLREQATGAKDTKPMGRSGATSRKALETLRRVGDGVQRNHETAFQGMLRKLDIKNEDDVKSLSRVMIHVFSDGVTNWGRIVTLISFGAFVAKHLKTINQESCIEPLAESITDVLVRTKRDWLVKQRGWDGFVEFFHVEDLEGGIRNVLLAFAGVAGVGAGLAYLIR
Sequence of Induced myeloid leukemia cell differentiation protein Mcl-1/Bcl-2-like protein 11 (O43521 whole entry, further chain, the tested form may be a part): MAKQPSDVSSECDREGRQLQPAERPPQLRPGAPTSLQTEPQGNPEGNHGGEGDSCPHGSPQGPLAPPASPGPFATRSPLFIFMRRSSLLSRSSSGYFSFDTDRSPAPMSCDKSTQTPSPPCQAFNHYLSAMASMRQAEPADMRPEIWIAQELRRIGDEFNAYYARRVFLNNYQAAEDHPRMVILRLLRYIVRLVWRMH

Consider `C[C@@H]1[C@@H](C)CCC[C@H](CN2CCN3CCN(C(=O)OC(C)(C)C)C[C@@H]3C2)[C@@H]2CC[C@H]2CN2C[C@@]3(CCCc4cc(Cl)ccc43)COc3ccc(cc32)C(=O)NS1(=O)=O`, for which the IC50 is 1.42 nM.
`C[C@@H]1[C@@H](C)CCC[C@@H](CC(=O)N2CCN3CCOC[C@H]3C2)[C@@H]2CC[C@H]2CN2C[C@@]3(CCCc4cc(Cl)ccc43)COc3ccc(cc32)C(=O)NS1(=O)=O`: the IC50 is 0.123 nM.

What is called IC50 is the concentration that inhibits the measured activity by half.
